Reference: BindingDB's records for doi:10.1016/j.bmc.2007.01.021 (Polish Academy of Sciences, 2007)

Target: Thymidylate synthase (Mus musculus, UniProt P07607)
Assay: Inhibition of mouse thymidylate synthase in mouse L1210 cells

Sequence of Thymidylate synthase (P07607 whole entry): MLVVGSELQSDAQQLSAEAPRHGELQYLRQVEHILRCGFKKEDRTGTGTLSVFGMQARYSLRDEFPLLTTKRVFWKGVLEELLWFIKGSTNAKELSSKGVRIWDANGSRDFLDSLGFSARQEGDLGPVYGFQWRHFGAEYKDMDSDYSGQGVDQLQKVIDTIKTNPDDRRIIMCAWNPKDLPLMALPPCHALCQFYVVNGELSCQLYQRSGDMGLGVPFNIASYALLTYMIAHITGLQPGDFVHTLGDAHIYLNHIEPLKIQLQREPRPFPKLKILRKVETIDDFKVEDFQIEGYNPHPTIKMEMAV

| SMILES | Ki [nM] |
| --- | --- |
| CCCc1cn([C@H]2C[C@H](O)[C@@H](OP(=O)(O)O)O2)c(=O)[nH]c1=O | 8.12 |
| CCc1cn([C@H]2C[C@H](O)[C@@H](OP(=O)(O)O)O2)c(=O)[nH]c1=O | 28.1 |
| O=c1[nH]c(=O)n([C@H]2C[C@H](O)[C@@H](OP(=O)(O)O)O2)cc1I | 128 |
| O=c1[nH]c(=O)n([C@H]2C[C@H](O)[C@@H](OP(=O)(O)O)O2)cc1[N+](=O)[O-] | 2.57 |
| O=c1[nH]c(=O)n([C@H]2C[C@H](O)[C@@H](OP(=O)(O)O)O2)cc1Br | 660 |
| O=c1[nH]c(=O)n([C@H]2C[C@H](O)[C@@H](OP(=O)(O)O)O2)cc1CO | 269 |
| Cc1cn([C@H]2C[C@H](O)[C@@H](OP(=O)(O)O)O2)c(=O)[nH]c1=O | 138 |
| O=c1[nH]c(=O)n([C@H]2C[C@H](O)[C@@H](OP(=O)(O)O)O2)cc1O | 309 |
